Data on 11 compounds can be found in PubChem BioAssay (NCI).

Each structure is given as a SMILES string.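 Tested at 5 concentrations; 48 h exposure; 96-well plates; endpoints linearly interpolated, else capped at highest concentration. Here, GI50 denotes the concentration required for 50% inhibition of growth. The concentration for full growth arrest is given as TGI.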

Some test systems named below: NCI-H226 lung; U251 CNS; SK-MEL-2 melanoma; SNB-75 CNS; SF-268 CNS; IGROV1 ovarian; SF-295 CNS; TK-10 renal; A498 renal; SNB-19 CNS.
Experiment in all cases: DTP human tumour cell line panel, 48 h

As a reminder, the TGI is the concentration at which net growth stops. Low values mean greater sensitivity of the cells, high ones lower sensitivity of the cells. Regarding `CN(C)CC1CCC/C1=N\O` (stereo not given), the concentration for total growth inhibition (TGI) in the test on NCI-H226 lung, in the test on U251 CNS, with SK-MEL-2 melanoma, in the test on SNB-75 CNS, in the test on SF-268 CNS and in the test with IGROV1 ovarian was above 100 µM each time. Besides, the TGI in the test on SF-295 CNS, in the test on TK-10 renal and with A498 renal was above 100 µM each time.

For orientation: GI50 means the concentration giving 50% growth inhibition. As to `COc1ccc(-c2ccc(-c3ccc(C(=N)N)cn3)o2)cc1`, the GI50 is 12.8 µM in the test with NCI-H226 lung; 4.7 µM in the test on U251 CNS; 4.91 µM in the test with SK-MEL-2 melanoma; 10.5 µM with SNB-75 CNS; 11.2 µM with SF-268 CNS; 5.29 µM in the test with IGROV1 ovarian. The GI50 with TK-10 renal is 10.7 µM; with A498 renal it was 12.8 µM; in the test with SNB-19 CNS it was 11.7 µM. Besides, the TGI amounted to 29.5 µM with NCI-H226 lung; 17.4 µM in the test with U251 CNS; 15.9 µM in the test on SK-MEL-2 melanoma; 22.5 µM in the test on SNB-75 CNS; 25.3 µM in the test on SF-268 CNS; 19 µM in the test on IGROV1 ovarian. In addition, the TGI in the test with TK-10 renal is 22.7 µM; in the test with A498 renal, 26.3 µM; in the test on SNB-19 CNS it was 24.6 µM.

Take `CCOC(=O)/C=C1\CCCC12OCCO2`: the TGI in the test on NCI-H226 lung, in the test with U251 CNS, in the test on SK-MEL-2 melanoma, in the test on SNB-75 CNS, with SF-268 CNS and with IGROV1 ovarian was above 100 µM each time. For the same compound, the TGI in the test with TK-10 renal, with A498 renal and in the test on SNB-19 CNS was above 100 µM each time.

Turning to `Nc1ccccc1C#C/C=C\C#Cc1ccccc1`, the GI50 in the test with NCI-H226 lung was 11.8 µM; with U251 CNS it was 19.2 µM; in the test with SK-MEL-2 melanoma, 25.5 µM; in the test on SNB-75 CNS it was 13.7 µM; in the test with SF-268 CNS it was 5.93 µM; in the test with SF-295 CNS, 11.3 µM. Moreover, the GI50 in the test on A498 renal was 15.3 µM; in the test with SNB-19 CNS it was 29.7 µM. Besides, the TGI in the test on NCI-H226 lung is 31.3 µM; in the test with U251 CNS, 46.9 µM; with SK-MEL-2 melanoma, 98.3 µM; with SNB-75 CNS, 58.9 µM; in the test on SF-268 CNS it was 28 µM; in the test on SF-295 CNS it was 31.8 µM. In addition, the TGI was 31.1 µM with A498 renal and above 100 µM with SNB-19 CNS.

For `CC(=O)OCC(OC(C)=O)C(OC(C)=O)C(OC(C)=O)C(=O)CNn1c(-c2ccccc2Cl)nc2ccccc2c1=O` (stereo not given), the TGI in the test with NCI-H226 lung, in the test on U251 CNS, in the test with SK-MEL-2 melanoma, with SNB-75 CNS, with SF-268 CNS and in the test on SF-295 CNS was above 100 µM each time. In addition, the TGI in the test with A498 renal and in the test with SNB-19 CNS was above 100 µM in each case.

On to `Cc1ccc(-c2csc(NC(=O)CN3CCN(c4cc5c(cc4F)c(=O)c(C(=O)O)cn5C4CC4)CC3)n2)cc1`, for which the GI50 in the test on NCI-H226 lung was 2.51 µM; in the test with U251 CNS, 0.388 µM; with SK-MEL-2 melanoma it was 1.33 µM; in the test with SNB-75 CNS, 0.448 µM; in the test with SF-268 CNS, 0.493 µM; in the test with IGROV1 ovarian it was 0.739 µM. Moreover, the GI50 in the test with SF-295 CNS is 1.15 µM; with A498 renal it was 1.02 µM; in the test with SNB-19 CNS, 0.87 µM. Besides, the concentration for total growth inhibition (TGI) with NCI-H226 lung is 9.41 µM; with U251 CNS, 13.4 µM; in the test on SK-MEL-2 melanoma it was 4.09 µM; with SNB-75 CNS, 11.2 µM; in the test on SF-268 CNS, above 100 µM; with IGROV1 ovarian, 17 µM. In addition, the TGI with SF-295 CNS stood at 13.9 µM; in the test on A498 renal it was 10.3 µM; with SNB-19 CNS, 27 µM.

On to `Cc1ccc2nc(-c3ccc(N(C)C)c(Br)c3)cn2c1`, for which the GI50 in the test on NCI-H226 lung was above 100 µM; in the test with U251 CNS, 7.19 µM; with SK-MEL-2 melanoma it was above 100 µM; in the test with SNB-75 CNS, 31.3 µM; with SF-268 CNS it was 8.09 µM; in the test with SF-295 CNS, above 100 µM. In addition, the GI50 with TK-10 renal was above 100 µM; in the test with A498 renal it was above 100 µM; in the test on SNB-19 CNS it was 64.4 µM. Moreover, the TGI in the test on NCI-H226 lung, in the test on U251 CNS, with SK-MEL-2 melanoma, in the test on SNB-75 CNS, in the test on SF-268 CNS and in the test with SF-295 CNS was above 100 µM each time. In addition, the concentration for total growth inhibition (TGI) with TK-10 renal, in the test on A498 renal and with SNB-19 CNS was above 100 µM each time.

With `CCCCN(CCCC)c1c([N+](=O)[O-])c(=O)nc2ccccn12`, the TGI with NCI-H226 lung, in the test with U251 CNS, with SK-MEL-2 melanoma, in the test on SNB-75 CNS, in the test with SF-268 CNS and in the test with IGROV1 ovarian was above 100 µM in each case. Further, the TGI with TK-10 renal is 85 µM; in the test on A498 renal it was 48.2 µM; in the test with SNB-19 CNS, above 100 µM.

Take `O=C1C(c2ccccc2)=[N+]([O-])c2ccccc21`: the concentration for total growth inhibition (TGI) is 37.8 µM in the test on NCI-H226 lung; 28.7 µM in the test with U251 CNS; 28.3 µM with SK-MEL-2 melanoma; 37.5 µM with SNB-75 CNS; 27.4 µM with SF-268 CNS; 32.6 µM with SF-295 CNS. The results for the TGI with TK-10 renal, in the test on A498 renal and in the test on SNB-19 CNS were 37.4 µM, 34 µM and 37.5 µM, respectively.

In the case of `Cc1nc2sccn2c1-c1csc(Nc2cccc(Cl)c2C)n1`, the GI50 in the test with NCI-H226 lung is 3.24 µM; in the test on U251 CNS, 4.37 µM; in the test on SK-MEL-2 melanoma, 3.78 µM; in the test with SNB-75 CNS it was 3.19 µM; with SF-268 CNS it was 11.9 µM; with IGROV1 ovarian, 8.83 µM. The results for the GI50 in the test on SF-295 CNS, in the test on A498 renal and in the test on SNB-19 CNS were 1.72 µM, 1.45 µM and 12.6 µM, respectively. The TGI came to 48.5 µM in the test on NCI-H226 lung; 19.6 µM with U251 CNS; 14 µM in the test with SK-MEL-2 melanoma; 28.3 µM with SNB-75 CNS; 74.4 µM in the test with SF-268 CNS; 73.2 µM with IGROV1 ovarian. The results for the concentration for total growth inhibition (TGI) in the test on SF-295 CNS, in the test with A498 renal and in the test with SNB-19 CNS were 10.6 µM, 17.5 µM and above 100 µM, respectively.

With `COc1ccc(/C=C\c2cc(OC)c(O[Si](C)(C)C(C)(C)C)c(OC)c2)cc1`, the TGI with NCI-H226 lung is above 100 µM; with U251 CNS, 42.2 µM; in the test on SK-MEL-2 melanoma, 65.2 µM; in the test with SNB-75 CNS it was above 100 µM; with SF-268 CNS it was above 100 µM; with IGROV1 ovarian, above 100 µM. The TGI is 81.1 µM in the test on A498 renal and above 100 µM in the test with SNB-19 CNS.
